The source of these data is patent US20220137057A1 (priority 2019, published 2022).

Read-outs that look alike come from different tables or passages of the source.

Experiment [1] deals with Pyricularia oryzae, Strain J1. The class given is cell-based. The following applies: for Fractional contribution of metabolite RI 3507: control 0.09 to 0.12; for Position of enzymatic inhibition in the metabolic sequence (breaking point): from increase/decrease of label incorporation, FIG. 3; for Non-polar metabolites changed (number of metabolite MIDs) / Polar metabolites changed (number of metabolite MIDs): treatment vs control; for Non-polar metabolites changed (number of metabolite MIDs): threshold 2% M0 difference, non-polar phase; for Polar metabolites changed (number of metabolite MIDs): threshold 5% M0 difference, polar phase.

The next experiment has as its system ergosterol biosynthesis. Put plainly: Metabolomics (metabolite profiling) of fenpropidin treatment, FIG. 5. It counts as cell-based. The following applies: samples 0.5, 2, 6 and 48 hours after treatment.
A further experiment concerns Lemna paucicostata. To be noted: in vivo.

With `Fc1ccc([C@]2(Cn3cncn3)O[C@H]2c2ccccc2Cl)cc1` (racemic) [fung 2, Epoxiconazole], in experiment [1], the “Mode-of-action pinpointed by MIAMI” value is “a hand full of potential targets in steroid biosynthesis”; the “Position of enzymatic inhibition in the metabolic sequence (breaking point)” value was “between RI 3569 and RI 3309”; the “Non-polar metabolites changed (number of metabolite MIDs)” value turned out to be 34; the “Polar metabolites changed (number of metabolite MIDs)” value is on record as 26. Besides, in experiment [1] (2 hours after treatment), the “Fractional contribution of metabolite RI 3507” value is reported as 0.17. Further, the “Fractional contribution of metabolite RI 3507” value in experiment [1] (6 hours after treatment) was found to be 0.37.
On to `CC(Cc1ccc(C(C)(C)C)cc1)CN1CCCCC1` (stereo not drawn) [fung 1, Fenpropidin], for which, in experiment [1], the “Mode-of-action pinpointed by MIAMI” value is reported as “a hand full of potential targets in steroid biosynthesis”; the “Position of enzymatic inhibition in the metabolic sequence (breaking point)” value is “between metabolites RI 3507 and RI 3309”; the “Non-polar metabolites changed (number of metabolite MIDs)” value worked out at 34; the “Polar metabolites changed (number of metabolite MIDs)” value was 19. Moreover, the “Fractional contribution of metabolite RI 3507” value in experiment [1] (2 hours after treatment) came to 0.16. For the same molecule, in experiment [1] (6 hours after treatment), the “Fractional contribution of metabolite RI 3507” value is reported as 0.18. Further, the “Change in ergosterol (metabolomics, fold-change to control)” value in the experiment with ergosterol biosynthesis is given as “reductions in ergosterol, however not significantly after 6 hours”.
Regarding `CC(C)C1(C)N=C(c2ncccc2C(=O)O)NC1=O` (stereo not drawn) [herbicide four, Imazapyr], in the experiment with Lemna paucicostata, the “Change in fractional contribution of differentially labeled metabolites” value is recorded as “increase in fractional contribution, except for valine” and the “Mode-of-action indicated by MIAMI” value was “mode-of-action in the valine biosynthesis pathway”.
